Assay results reported in the supplement of paper PMC10307832.

Legend:
Test in all cases: relative viability (nuclei count vs DMSO), 5 days (fraction); higher = more cells survive
JZL-184 + Pemetrexed = compound: C1CN(CCC1C(C2=CC3=C(C=C2)OCO3)(C4=CC5=C(C=C4)OCO5)O)C(=O)OC6=CC=C(C=C6)[N+](=O)[O-] [JZL-184] + Nc1nc2[nH]cc(CCc3ccc(C(=O)N[C@@H](CCC(=O)O)C(=O)O)cc3)c2c(=O)[nH]1 [Pemetrexed] (partner 0.2 µM)
Outline: (§1)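 Relative viability is defined as nuclei in treated wells over nuclei in vehicle wells. Duplicate plates were run and medians reported. Lung cancer cell lines in 1536-well plates were dosed by pin tool one day after seeding, with one drug or with a fixed anchor-drug dose plus five library-drug doses (not always all listed) in √10 steps, and nuclei were counted after 5 days.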

JZL-184 + OSI-027 = compound: C1CN(CCC1C(C2=CC3=C(C=C2)OCO3)(C4=CC5=C(C=C4)OCO5)O)C(=O)OC6=CC=C(C=C6)[N+](=O)[O-] [JZL-184] + COc1cccc2cc(-c3nc([C@H]4CC[C@H](C(=O)O)CC4)n4ncnc(N)c34)[nH]c12 [OSI-027] (partner 0.5 µM)
Outline: as §1

JZL-184 + Crizotinib = compound: C1CN(CCC1C(C2=CC3=C(C=C2)OCO3)(C4=CC5=C(C=C4)OCO5)O)C(=O)OC6=CC=C(C=C6)[N+](=O)[O-] [JZL-184] + C[C@@H](Oc1cc(-c2cnn(C3CCNCC3)c2)cnc1N)c1c(Cl)ccc(F)c1Cl [Crizotinib] (partner 1 µM)
Outline: as §1

JZL-184 + Decitabine = compound: C1CN(CCC1C(C2=CC3=C(C=C2)OCO3)(C4=CC5=C(C=C4)OCO5)O)C(=O)OC6=CC=C(C=C6)[N+](=O)[O-] [JZL-184] + Nc1ncn([C@H]2C[C@H](O)[C@@H](CO)O2)c(=O)n1 [Decitabine] (partner 2 µM)
Outline: as §1

JZL-184 + Bortezomib = compound: C1CN(CCC1C(C2=CC3=C(C=C2)OCO3)(C4=CC5=C(C=C4)OCO5)O)C(=O)OC6=CC=C(C=C6)[N+](=O)[O-] [JZL-184] + CC(C)C[C@H](NC(=O)[C@H](Cc1ccccc1)NC(=O)c1cnccn1)B(O)O [Bortezomib] (partner 0.002 µM)
Outline: as §1

Row | Cell Line | relative viability (JZL-184 + Pemetrexed; first compound 0.04 µM) | relative viability (JZL-184 + Pemetrexed; first compound 0.4 µM) | relative viability (JZL-184 + Pemetrexed; first compound 1.265 µM) | relative viability (JZL-184 + Pemetrexed; first compound 4 µM) | relative viability (JZL-184 + OSI-027; first compound 0.04 µM) | relative viability (JZL-184 + OSI-027; first compound 0.4 µM) | relative viability (JZL-184 + OSI-027; first compound 1.265 µM) | relative viability (JZL-184 + OSI-027; first compound 4 µM) | relative viability (JZL-184 + Crizotinib; first compound 0.04 µM) | relative viability (JZL-184 + Crizotinib; first compound 0.4 µM) | relative viability (JZL-184 + Crizotinib; first compound 1.265 µM) | relative viability (JZL-184 + Crizotinib; first compound 4 µM) | relative viability (JZL-184 + Decitabine; first compound 0.4 µM) | relative viability (JZL-184 + Decitabine; first compound 1.265 µM) | relative viability (JZL-184 + Decitabine; first compound 4 µM) | relative viability (JZL-184 + Bortezomib; first compound 0.04 µM) | relative viability (JZL-184 + Bortezomib; first compound 0.4 µM) | relative viability (JZL-184 + Bortezomib; first compound 1.265 µM) | relative viability (JZL-184 + Bortezomib; first compound 4 µM) | relative viability (JZL-184 + Decitabine; first compound 0.04 µM)
1 | NCI-H2347 | 0.388 | 0.368 | 0.402 | 0.45 | 0.396 | 0.393 | 0.419 | 0.477 | 0.968 | 0.835 | 0.694 | 0.72 | 0.577 | 0.657 | 0.644 | 1.12 | 0.717 | 1.05 | 0.906 | –
2 | NCI-H2405 | 1.09 | 0.999 | 1.14 | 1.05 | 0.608 | 0.608 | 0.651 | 0.615 | 0.87 | 0.857 | 0.968 | 0.811 | 0.694 | 0.738 | 0.767 | 1.05 | 0.943 | 1.06 | 0.769 | 0.792
3 | NCI-H3122 | 0.187 | 0.18 | 0.2 | 0.204 | 1.14 | 0.902 | 0.944 | 0.862 | 0.27 | 0.237 | 0.282 | 0.323 | 0.458 | 0.375 | 0.433 | 1.01 | 0.93 | 0.982 | 1.03 | 0.411
4 | PC-3 [JPC-3] | 0.994 | 1.13 | 1.27 | 1.05 | 0.732 | 0.724 | 0.782 | 0.749 | 1.02 | 1.03 | 1.01 | 0.974 | 0.825 | 0.874 | 0.822 | 0.988 | 0.895 | 0.835 | 0.801 | 1.02
5 | PC-14 | 0.126 | 0.128 | 0.15 | 0.114 | 1.07 | 0.831 | 0.853 | 0.72 | 0.909 | 0.966 | 0.828 | 0.86 | 0.199 | 0.198 | 0.241 | 0.808 | 0.972 | 0.781 | 0.77 | 0.343
6 | RERF-LC-KJ | 0.496 | 0.463 | 0.468 | 0.44 | 0.58 | 0.625 | 0.562 | 0.478 | 0.844 | 0.75 | 0.856 | 0.742 | 0.706 | 0.808 | 0.56 | 1.15 | 0.96 | 1.11 | 1.04 | 0.854
7 | SK-LU-1 | 1.04 | 0.887 | 1 | 0.881 | 0.405 | 0.341 | 0.423 | 0.358 | 1.05 | 0.889 | 1.15 | 1.11 | 0.584 | 0.705 | 0.698 | 0.929 | 1.06 | 1.29 | 1.16 | 0.673
8 | SW 1573 | 1.11 | 0.842 | 0.915 | 0.876 | 0.733 | 0.548 | 0.591 | 0.525 | 0.904 | 0.724 | 0.883 | 0.759 | 0.449 | 0.484 | 0.463 | 1.14 | 0.935 | 1.08 | 0.976 | 0.818
9 | UMC-11 | 0.916 | 0.755 | 0.876 | 0.79 | 0.612 | 0.461 | 0.499 | 0.457 | 0.787 | 0.679 | 0.555 | 0.57 | 0.521 | 0.616 | 0.733 | 0.79 | 0.723 | 0.571 | 0.673 | 0.738
